From patent publication US20230247994A1, “HETEROCYCLENE DERIVATIVES AS PEST CONTROL AGENTS” (Bayer Aktiengesellschaft, priority 2020, published 2023) come the findings set out here.

Holding throughout (type): in vivo
In one experiment the test system is Meloidogyne incognita. The experiment is described as follows: Meloidogyne incognita test (lettuce, gall formation). Conditions: application rate 20 ppm, after 14 days, 100% = no galls found. An excerpt: Meloidogyne Incognita Test Solvent: 125.0 parts by weight of acetone An appropriate active ingredient formulation is produced by mixing 1 part by weight of active ingredient with the stated amount of solvent and diluting the concentrate to the desired concentration with water. Vessels are filled with sand, active ingredient solution, an egg/larvae suspension of the southern root-knot nematode (Meloidogyne incognita) and lettuce seeds. The lettuce seeds germinate and the plants develop. The galls develop on the roots. After 14 days, the nematicidal efficacy in % is determined by the formation of galls. 100% means that no galls were found; 0% means that the number of galls on the treated plants corresponds to the untreated control.

Another experiment has as its system Spodoptera frugiperda. The experiment is described as follows: Spodoptera frugiperda spray test (maize leaf disks). As to conditions: foliar, 168 h, application rate 100 g/ha, caterpillars, after 7 days, 100% = all caterpillars killed, read-out: efficacy in %. An excerpt:
Spodoptera frugiuerda—Spray Test
Solvent: 78.0 parts by weight of acetone • • 1.5 parts by weight of dimethylformamide
Emulsifier: alkylaryl polyglycol ether
An appropriate active ingredient formulation is produced by dissolving 1 part by weight of active ingredient with the stated parts by weight of solvent and making the solution up to the desired concentration with water containing an emulsifier concentration of 1000 ppm. Further test concentrations are produced by diluting the formulation with emulsifier-containing water.
Leaf disks of maize (Zea mays) are sprayed with an active ingredient formulation of the desired concentration and, after drying, populated with caterpillars of the fall armyworm (Spodopterafrugiperda).
After 7 days, efficacy in % is determined. 100% means that all of the caterpillars have been killed; 0% means that none of the caterpillars have been killed.

For the next experiment, the system named is Diabrotica balteata. In words: Diabrotica balteata spray test (germinated wheat grains). Conditions: 168 h, application rate 100 g/ha (=32 μg/cavity), after 7 days, beetle larvae on wheat, 100% = all wheat plants grown as in untreated, uninfected control, read-out: efficacy in %. An excerpt: Diabrotica Balteata—Spray Test Solvent: 78 parts by weight of acetone • • 1.5 parts by weight of dimethylformamide Emulsifier: alkylaryl polyglycol ether An appropriate active ingredient formulation is produced by dissolving 1 part by weight of active ingredient with the stated parts by weight of solvent and making the solution up to the desired concentration with water containing an emulsifier concentration of 1000 ppm. Further test concentrations are produced by diluting the formulation with emulsifier-containing water. Pre-swollen wheat grains (Triticum aestivum) are incubated in a multiwell plate filled with agar and a little water for one day (5 seed grains per cavity). The germinated wheat grains are sprayed with an active ingredient formulation of the desired concentration. Subsequently, each cavity is infected with 10-20 beetle larvae of Diabrotica balteata. After 7 days, efficacy in % is determined. 100% means that all wheat plants have grown as in the untreated, uninfected control; 0% means that no wheat plant has grown.

Another experiment deals with Nezara viridula. In words: Nezara viridula spray test (barley plants). As to conditions: 96 h, application rate 500 g/ha, larvae, after 4 days, 100% = all shield bugs killed, read-out: efficacy in %. An excerpt: (§1) Nezara viridula—Spray Test Solvent: 78.0 parts by weight of acetone • • 1.5 parts by weight of dimethylformamide Emulsifier: alkylaryl polyglycol ether An appropriate active ingredient formulation is produced by dissolving 1 part by weight of active ingredient with the stated parts by weight of solvent and making the solution up to the desired concentration with water containing an emulsifier concentration of 1000 ppm. Further test concentrations are produced by diluting the formulation with emulsifier-containing water. Barley plants (Hordeum vulgare) are sprayed with an active ingredient formulation of the desired concentration and are infected with larvae of the Southern green shield bug (Nezara viridula). After 4 days, efficacy in % is determined. 100% means that all of the shield bugs have been killed; 0% means that none of the shield bugs have been killed.

In another experiment the test system is Myzus persicae. The experiment is described as follows: Myzus persicae spray test (Chinese cabbage leaf disks). Conditions: application rate 100 g/ha, after 5 days, 100% = all aphids killed.
Text: as §1, with “Myzus persicae—Spray” for “Nezara viridula—Spray”, “78” for “78.0”, “Leaf disks of Chinese cabbage (Brassica pekinensis) infested by all stages of the green peach aphid (Myzus persicae)” for “Barley plants (Hordeum vulgare)”, “concentration.” for “concentration and are infected with larvae of the Southern green shield bug (Nezara viridula).”, “5” for “4”, “aphids” for “shield bugs”

For `CCS(=O)(=O)c1c(-c2nc3cc4c(cc3n2C)OC(F)(F)C(F)(F)O4)nc(-c2ccc(Cl)cc2)n1C` [Example I-4, 2-[2-(4-Chlorophenyl)-5-(ethylsulfonyl)-1-methyl-1H-imidazol-4-yl]-6,6,7,7-tetrafluoro-1-methyl-6,7-dihydro-1H-[1,4]dioxino[2,3-f]benzimidazole], in the experiment on Meloidogyne incognita, the “nematicidal efficacy in % (formation of galls)” value (shortened to “nematicidal efficacy in %”) is given as 90%. The pest or weed control at 100 g/ha with Spodoptera frugiperda worked out at 100%; in the experiment on Diabrotica balteata, 80%.

For `CCS(=O)(=O)c1c(-c2nc3cc4c(cc3n2C)OC(F)(F)C(F)(F)O4)nc(-c2ccc(C3(C#N)CC3)cc2)n1C` [Example I-6, 1-{4-[5-(Ethylsulfonyl)-1-methyl-4-(6,6,7,7-tetrafluoro-1-methyl-6,7-dihydro-1H-[1,4]dioxino[2,3-f]benzimidazol-2-yl)-1H-imidazol-2-yl]phenyl}cyclopropanecarbonitrile], the “nematicidal efficacy in %” value with Meloidogyne incognita is recorded as 100%. Besides, the pest or weed control at 100 g/ha in the experiment on Spodoptera frugiperda and with Diabrotica balteata was 100% throughout. The pest or weed control at 500 g/ha in the experiment on Nezara viridula came to 100%.

`CCS(=O)(=O)c1c(-c2nc3cc4c(cc3n2C)OC(F)(F)C(F)(F)O4)nc(-c2ccc(Br)cc2)n1C` [Example I-10, 2-[2-(4-Bromophenyl)-5-(ethylsulfonyl)-1-methyl-1H-imidazol-4-yl]-6,6,7,7-tetrafluoro-1-methyl-6,7-dihydro-1H-[1,4]dioxino[2,3-f]benzimidazole]: the pest or weed control at 100 g/ha with Spodoptera frugiperda and in the experiment on Diabrotica balteata was 100% in each case. The pest or weed control at 500 g/ha with Nezara viridula amounted to 100%.

As to `CCS(=O)(=O)c1c(-c2nc3cc4c(cc3n2C)OC(F)(F)C(F)(F)O4)nc(-c2ccc(C3(F)CC3)cc2)n1C` [Example I-11, 2-{5-(Ethylsulfonyl)-2-[4-(1-fluorocyclopropyl)phenyl]-1-methyl-1H-imidazol-4-yl}-6,6,7,7-tetrafluoro-1-methyl-6,7-dihydro-1H-[1,4]dioxino[2,3-f]benzimidazole], the pest or weed control at 100 g/ha with Spodoptera frugiperda and in the experiment on Diabrotica balteata was 100% throughout. The pest or weed control at 500 g/ha in the experiment on Nezara viridula stood at 100%.

On to `CCS(=O)(=O)c1c(-c2nc3cc4c(cc3n2C)OC(F)(F)C(F)(F)O4)nc(-c2cccc(F)c2)n1C` [Example I-14, 2-[5-(Ethylsulfonyl)-2-(3-fluorophenyl)-1-methyl-1H-imidazol-4-yl]-6,6,7,7-tetrafluoro-1-methyl-6,7-dihydro-1H-[1,4]dioxino[2,3-f]benzimidazole], for which the pest or weed control at 100 g/ha in the experiment with Spodoptera frugiperda and in the experiment with Diabrotica balteata was 100% each time. Also, in the experiment on Nezara viridula, the pest or weed control at 500 g/ha came to 90%.

Take `CCS(=O)(=O)c1c(-c2nc3cc4c(cc3n2C)OC(F)(F)C(F)(F)O4)nc(-c2ccc(C(F)(F)F)cc2)n1C` [Example I-15, 2-{5-(Ethylsulfonyl)-1-methyl-2-[4-(trifluoromethyl)phenyl]-1H-imidazol-4-yl}-6,6,7,7-tetrafluoro-1-methyl-6,7-dihydro-1H-[1,4]dioxino[2,3-f]benzimidazole]: the pest or weed control at 100 g/ha in the experiment with Spodoptera frugiperda and with Diabrotica balteata was 100% each time. Further, the pest or weed control at 500 g/ha in the experiment with Nezara viridula turned out to be 100%.

For the molecule `CCS(=O)(=O)c1c(-c2nc3cc4c(cc3n2C)OC(F)(F)C(F)(F)O4)nc(-c2ccccc2)n1C` [Example I-16, 2-[5-(Ethylsulfonyl)-1-methyl-2-phenyl-1H-imidazol-4-yl]-6,6,7,7-tetrafluoro-1-methyl-6,7-dihydro-1H-[1,4]dioxino[2,3-f]benzimidazole], the pest or weed control at 100 g/ha in the experiment with Spodoptera frugiperda and with Diabrotica balteata was 100% throughout. For the same molecule, the efficacy in % with Myzus persicae came to 90%. In addition, in the experiment with Nezara viridula, the pest or weed control at 500 g/ha was determined as 100%.

As for `CCS(=O)(=O)c1c(-c2nc3cc4c(cc3n2C)OC(F)(F)C(F)(F)O4)nc(-c2ccc(C3CC3)nc2)n1C` [Example I-18, 2-[2-(6-Cyclopropylpyridin-3-yl)-5-(ethylsulfonyl)-1-methyl-1H-imidazol-4-yl]-6,6,7,7-tetrafluoro-1-methyl-6,7-dihydro-1H-[1,4]dioxino[2,3-f]benzimidazole], the pest or weed control at 100 g/ha in the experiment with Spodoptera frugiperda and with Diabrotica balteata was 100% each time. Moreover, in the experiment on Nezara viridula, the pest or weed control at 500 g/ha came out at 100%.

Take `CCS(=O)(=O)c1c(-c2nc3cc4c(cc3n2C)OC(F)(F)C(F)(F)O4)nc(-c2ccc(Cl)s2)n1C` [Example I-19, 2-[2-(5-Chloro-2-thienyl)-5-(ethylsulfonyl)-1-methyl-1H-imidazol-4-yl]-6,6,7,7-tetrafluoro-1-methyl-6,7-dihydro-1H-[1,4]dioxino[2,3-f]benzimidazole]: the pest or weed control at 100 g/ha in the experiment with Spodoptera frugiperda turned out to be 100%. Moreover, the pest or weed control at 500 g/ha in the experiment on Nezara viridula is 100%.

`CCS(=O)(=O)c1c(-c2nc3cc4c(cc3n2C)OC(F)(F)C(F)(F)O4)nc(-c2cccc(C3(F)CC3)c2)n1C` [Example I-20, 2-{5-(Ethylsulfonyl)-2-[3-(1-fluorocyclopropyl)phenyl]-1-methyl-1H-imidazol-4-yl}-6,6,7,7-tetrafluoro-1-methyl-6,7-dihydro-1H-[1,4]dioxino[2,3-f]benzimidazole]: the pest or weed control at 100 g/ha in the experiment on Spodoptera frugiperda and with Diabrotica balteata was 100% each time. Besides, the pest or weed control at 500 g/ha in the experiment on Nezara viridula was found to be 90%.

On to `CCS(=O)(=O)c1c(-c2nc3cc4c(cc3n2C)OC(F)(F)C(F)(F)O4)nc(-n2cnc(C3CC3)n2)n1C` [Example I-23, 2-[2-(3-Cyclopropyl-1H-1,2,4-triazol-1-yl)-5-(ethylsulfonyl)-1-methyl-1H-imidazol-4-yl]-6,6,7,7-tetrafluoro-1-methyl-6,7-dihydro-1H-[1,4]dioxino[2,3-f]benzimidazole], for which the pest or weed control at 100 g/ha with Spodoptera frugiperda was 100%; with Diabrotica balteata, 80%. For the same molecule, in the experiment on Nezara viridula, the pest or weed control at 500 g/ha was found to be 100%.

Consider `CCS(=O)(=O)c1c(-c2nc3cc4c(cc3n2C)OC(F)(F)C(F)(F)O4)nc(-c2ccc(Br)cn2)n1C` [Example I-24, 2-[2-(5-Bromopyridin-2-yl)-5-(ethylsulfonyl)-1-methyl-1H-imidazol-4-yl]-6,6,7,7-tetrafluoro-1-methyl-6,7-dihydro-1H-[1,4]dioxino[2,3-f]benzimidazole], for which the pest or weed control at 100 g/ha in the experiment on Spodoptera frugiperda and in the experiment on Diabrotica balteata was 100% in each case. In addition, in the experiment with Nezara viridula, the pest or weed control at 500 g/ha is 100%.

With `CCS(=O)(=O)c1c(-c2nc3cc4c(cc3n2C)OC(F)(F)C(F)(F)O4)nc(-c2cccc(C3(C#N)CC3)c2)n1C` [Example I-36], the pest or weed control at 100 g/ha in the experiment on Spodoptera frugiperda and in the experiment with Diabrotica balteata was 100% throughout. Also, in the experiment with Nezara viridula, the pest or weed control at 500 g/ha worked out at 90%.

Regarding `CCS(=N)(=O)c1c(-c2nc3cc4c(cc3n2C)OC(F)(F)C(F)(F)O4)nc(-c2ccc(C(F)(F)F)cc2)n1C` (stereo not shown) [Example I-37], the “nematicidal efficacy in %” value in the experiment with Meloidogyne incognita was 90%. Also, the figures for the pest or weed control at 100 g/ha in the experiment on Spodoptera frugiperda and in the experiment with Diabrotica balteata were 100% and 80%, respectively.
